Species on record: Rattus norvegicus
Test: Open TG-GATES - Regimen: Daily Repeat
Assay type: toxicity, organism-based, Sprague-Dawley
Design: regimen Daily Repeat, gender Male, age 6 weeks
Conditions: in vivo, po, route gavage; for APTT / Bas / Eos / Fbg / Hb / Ht / Lym / MCH / MCHC / MCV / Mono / Neu / PT / Plat / RBC / Ret / WBC: tissue Blood; for KIDNEY_L / KIDNEY_R / KIDNEY_TOTAL: tissue Kidney; for LIVER: tissue Liver; for A/G / ALP / ALT / AST / BUN / CRE / Ca / Cl / DBIL / GLC / IP / K / LDH / Na / PL / RALB / TBIL / TC / TG / TP / gamma-GTP: tissue Plasma
[1] = 0 mg/kg, 72 h, dose level Control, time 3 day
[2] = 0 mg/kg, […], dose level Control, time 7 day
[3] = 0 mg/kg, […], dose level Control, time 14 day
[4] = 0 mg/kg, […], dose level Control, time 28 day
[5] = 30 mg/kg, 72 h, dose level Low, time 3 day
[6] = 30 mg/kg, […], dose level Low, time 7 day
[7] = 30 mg/kg, […], dose level Low, time 14 day
[8] = 30 mg/kg, […], dose level Low, time 28 day

C[C@]12CCC(=O)C=C1CC[C@@H]1[C@@H]2CC[C@@]2(C)[C@H]1CC[C@]2(C)O [METHYLTESTOSTERONE]
TERMINAL_BW [1]: 237.3 g
APTT [1]: 16.2 s
Bas [1]: 0%
Eos [1]: 1.2%
Fbg [1]: 280 mg/dL
Hb [1]: 13.4 g/dL
Ht [1]: 38.9%
Lym [1]: 78.4%
MCH [1]: 21.6 pg
MCHC [1]: 34.4%
MCV [1]: 62.7 fL
Mono [1]: 2.4%
Neu [1]: 17.4%
PT [1]: 12.9 s
Plat [1]: 119.6 x10_4/uL
RBC [1]: 619.6 x10_4/ul
Ret [1]: 6.7%
WBC [1]: 73.9 x10_2/uL
KIDNEY_L [1]: 1 g
KIDNEY_R [1]: 1 g
KIDNEY_TOTAL [1]: 2 g
LIVER [1]: 10.9 g
A/G [1]: 0.9
ALP [1]: 1982.8 IU/L
ALT [1]: 45.6 IU/L
AST [1]: 73.2 IU/L
BUN [1]: 15.2 mg/dL
CRE [1]: 0.2 mg/dL
Ca [1]: 10.9 mg/dL
Cl [1]: 108.2 meq/L
DBIL [1]: 0.014 mg/dL
GLC [1]: 186.4 mg/dL
IP [1]: 7.5 mg/dL
K [1]: 4.2 meq/L
LDH [1]: 54.4 IU/L
Na [1]: 142.6 meq/L
PL [1]: 142.8 mg/dL
RALB [1]: 2.6 g/dL
TBIL [1]: 0.028 mg/dL
TC [1]: 77.8 mg/dL
TG [1]: 87.2 mg/dL
TP [1]: 5.6 g/dL
gamma-GTP [1]: 1 IU/L
TERMINAL_BW [2]: 278.3 g
TERMINAL_BW [3]: 322 g
TERMINAL_BW [4]: 397.8 g
APTT [2]: 16.6 s
Bas [2]: 0%
Eos [2]: 0.8%
Fbg [2]: 272 mg/dL
Hb [2]: 13.4 g/dL
Ht [2]: 39%
Lym [2]: 81.8%
MCH [2]: 21.4 pg
MCHC [2]: 34.3%
MCV [2]: 62.6 fL
Mono [2]: 2.2%
Neu [2]: 15%
PT [2]: 13.1 s
Plat [2]: 136.7 x10_4/uL
RBC [2]: 623.8 x10_4/ul
Ret [2]: 5.6%
WBC [2]: 87.3 x10_2/uL
APTT [3]: 15.9 s
Bas [3]: 0.2%
Eos [3]: 1%
Fbg [3]: 288.4 mg/dL
Hb [3]: 14.7 g/dL
Ht [3]: 42.6%
Lym [3]: 80.6%
MCH [3]: 20.7 pg
MCHC [3]: 34.6%
MCV [3]: 59.8 fL
Mono [3]: 2.6%
Neu [3]: 15.4%
PT [3]: 12.8 s
Plat [3]: 112.1 x10_4/uL
RBC [3]: 713 x10_4/ul
Ret [3]: 3.6%
WBC [3]: 88 x10_2/uL
APTT [4]: 17.5 s
Bas [4]: 0%
Eos [4]: 1.2%
Fbg [4]: 269.8 mg/dL
Hb [4]: 15.7 g/dL
Ht [4]: 44.4%
Lym [4]: 78.2%
MCH [4]: 19.7 pg
MCHC [4]: 35.4%
MCV [4]: 55.9 fL
Mono [4]: 2%
Neu [4]: 17.6%
PT [4]: 13.5 s
Plat [4]: 106.1 x10_4/uL
RBC [4]: 794.6 x10_4/ul
Ret [4]: 2.1%
WBC [4]: 94.3 x10_2/uL
KIDNEY_L [2]: 1.2 g
KIDNEY_R [2]: 1.1 g
KIDNEY_TOTAL [2]: 2.3 g
KIDNEY_L [3]: 1.2 g
KIDNEY_R [3]: 1.2 g
KIDNEY_TOTAL [3]: 2.5 g
KIDNEY_L [4]: 1.4 g
KIDNEY_R [4]: 1.4 g
KIDNEY_TOTAL [4]: 2.8 g
LIVER [2]: 12.2 g
LIVER [3]: 13.6 g
LIVER [4]: 14.9 g
A/G [2]: 0.9
ALP [2]: 1755.8 IU/L
ALT [2]: 41.2 IU/L
AST [2]: 71.6 IU/L
BUN [2]: 16.4 mg/dL
CRE [2]: 0.2 mg/dL
Ca [2]: 11 mg/dL
Cl [2]: 104.8 meq/L
DBIL [2]: 0.018 mg/dL
GLC [2]: 192.4 mg/dL
IP [2]: 7.5 mg/dL
K [2]: 4 meq/L
LDH [2]: 68.4 IU/L
Na [2]: 142 meq/L
PL [2]: 136.4 mg/dL
RALB [2]: 2.7 g/dL
TBIL [2]: 0.028 mg/dL
TC [2]: 73 mg/dL
TG [2]: 100.6 mg/dL
TP [2]: 5.8 g/dL
gamma-GTP [2]: 1.2 IU/L
A/G [3]: 0.8
ALP [3]: 1238.8 IU/L
ALT [3]: 51.8 IU/L
AST [3]: 71.4 IU/L
BUN [3]: 16.4 mg/dL
CRE [3]: 0.2 mg/dL
Ca [3]: 10.6 mg/dL
Cl [3]: 105.8 meq/L
DBIL [3]: 0.018 mg/dL
GLC [3]: 187 mg/dL
IP [3]: 7 mg/dL
K [3]: 4.2 meq/L
LDH [3]: 96.2 IU/L
Na [3]: 141.6 meq/L
PL [3]: 144 mg/dL
RALB [3]: 2.7 g/dL
TBIL [3]: 0.032 mg/dL
TC [3]: 75.6 mg/dL
TG [3]: 127 mg/dL
TP [3]: 5.9 g/dL
gamma-GTP [3]: 1.2 IU/L
A/G [4]: 0.8
ALP [4]: 1136 IU/L
ALT [4]: 37.8 IU/L
AST [4]: 62.2 IU/L
BUN [4]: 16.4 mg/dL
CRE [4]: 0.2 mg/dL
Ca [4]: 11.3 mg/dL
Cl [4]: 105.4 meq/L
DBIL [4]: 0.016 mg/dL
GLC [4]: 182.6 mg/dL
IP [4]: 6.2 mg/dL
K [4]: 3.9 meq/L
LDH [4]: 59.8 IU/L
Na [4]: 143 meq/L
PL [4]: 127.8 mg/dL
RALB [4]: 2.8 g/dL
TBIL [4]: 0.03 mg/dL
TC [4]: 63.4 mg/dL
TG [4]: 120.6 mg/dL
TP [4]: 6.2 g/dL
gamma-GTP [4]: 0.8 IU/L
TERMINAL_BW [5]: 237.2 g
APTT [5]: 15.8 s
Bas [5]: 0%
Eos [5]: 1.2%
Fbg [5]: 296.2 mg/dL
Hb [5]: 13.3 g/dL
Ht [5]: 38.8%
Lym [5]: 75.2%
MCH [5]: 21.5 pg
MCHC [5]: 34.2%
MCV [5]: 63 fL
Mono [5]: 2.6%
Neu [5]: 20.8%
PT [5]: 12.8 s
Plat [5]: 111.2 x10_4/uL
RBC [5]: 617 x10_4/ul
Ret [5]: 6.6%
WBC [5]: 57.6 x10_2/uL
KIDNEY_L [5]: 1 g
KIDNEY_R [5]: 1 g
KIDNEY_TOTAL [5]: 2 g
LIVER [5]: 11.1 g
A/G [5]: 0.9
ALP [5]: 1870.2 IU/L
ALT [5]: 45.4 IU/L
AST [5]: 69.6 IU/L
BUN [5]: 15 mg/dL
CRE [5]: 0.2 mg/dL
Ca [5]: 11 mg/dL
Cl [5]: 107.6 meq/L
DBIL [5]: 0.018 mg/dL
GLC [5]: 195 mg/dL
IP [5]: 7.9 mg/dL
K [5]: 4.1 meq/L
LDH [5]: 58.2 IU/L
Na [5]: 144 meq/L
PL [5]: 144 mg/dL
RALB [5]: 2.7 g/dL
TBIL [5]: 0.03 mg/dL
TC [5]: 67.2 mg/dL
TG [5]: 123.6 mg/dL
TP [5]: 5.8 g/dL
gamma-GTP [5]: 1.4 IU/L
TERMINAL_BW [6]: 271.8 g
TERMINAL_BW [7]: 329.8 g
TERMINAL_BW [8]: 409.3 g
APTT [6]: 16.5 s
Bas [6]: 0%
Eos [6]: 1%
Fbg [6]: 308.4 mg/dL
Hb [6]: 13.1 g/dL
Ht [6]: 38.1%
Lym [6]: 76.8%
MCH [6]: 21 pg
MCHC [6]: 34.4%
MCV [6]: 61 fL
Mono [6]: 3%
Neu [6]: 18.6%
PT [6]: 13 s
Plat [6]: 111.9 x10_4/uL
RBC [6]: 625.6 x10_4/ul
Ret [6]: 5.8%
WBC [6]: 78.3 x10_2/uL
APTT [7]: 17.7 s
Bas [7]: 0.2%
Eos [7]: 1%
Fbg [7]: 289.2 mg/dL
Hb [7]: 14.4 g/dL
Ht [7]: 41.7%
Lym [7]: 79.2%
MCH [7]: 20.6 pg
MCHC [7]: 34.6%
MCV [7]: 59.6 fL
Mono [7]: 2.4%
Neu [7]: 16%
PT [7]: 13.3 s
Plat [7]: 114.4 x10_4/uL
RBC [7]: 700.2 x10_4/ul
Ret [7]: 3.9%
WBC [7]: 96.1 x10_2/uL
APTT [8]: 19.2 s
Bas [8]: 0%
Eos [8]: 1.4%
Fbg [8]: 300.2 mg/dL
Hb [8]: 15.7 g/dL
Ht [8]: 44.9%
Lym [8]: 75.8%
MCH [8]: 19.5 pg
MCHC [8]: 35%
MCV [8]: 55.6 fL
Mono [8]: 2.6%
Neu [8]: 20.2%
PT [8]: 13.1 s
Plat [8]: 101.6 x10_4/uL
RBC [8]: 809.2 x10_4/ul
Ret [8]: 2.2%
WBC [8]: 84 x10_2/uL
KIDNEY_L [6]: 1.1 g
KIDNEY_R [6]: 1.1 g
KIDNEY_TOTAL [6]: 2.3 g
KIDNEY_L [7]: 1.3 g
KIDNEY_R [7]: 1.2 g
KIDNEY_TOTAL [7]: 2.5 g
KIDNEY_L [8]: 1.4 g
KIDNEY_R [8]: 1.4 g
KIDNEY_TOTAL [8]: 2.9 g
LIVER [6]: 12.5 g
LIVER [7]: 14.5 g
LIVER [8]: 17.1 g
A/G [6]: 0.9
ALP [6]: 1824.8 IU/L
ALT [6]: 46.8 IU/L
AST [6]: 75.2 IU/L
BUN [6]: 15 mg/dL
CRE [6]: 0.2 mg/dL
Ca [6]: 10.9 mg/dL
Cl [6]: 106 meq/L
DBIL [6]: 0.02 mg/dL
GLC [6]: 190.4 mg/dL
IP [6]: 7.6 mg/dL
K [6]: 4.1 meq/L
LDH [6]: 63.6 IU/L
Na [6]: 142.4 meq/L
PL [6]: 133 mg/dL
RALB [6]: 2.7 g/dL
TBIL [6]: 0.026 mg/dL
TC [6]: 54.6 mg/dL
TG [6]: 133 mg/dL
TP [6]: 5.8 g/dL
gamma-GTP [6]: 1.2 IU/L
A/G [7]: 0.8
ALP [7]: 1301 IU/L
ALT [7]: 49.8 IU/L
AST [7]: 72.8 IU/L
BUN [7]: 16.4 mg/dL
CRE [7]: 0.2 mg/dL
Ca [7]: 10.5 mg/dL
Cl [7]: 106.8 meq/L
DBIL [7]: 0.02 mg/dL
GLC [7]: 192.6 mg/dL
IP [7]: 7.1 mg/dL
K [7]: 4 meq/L
LDH [7]: 132.6 IU/L
Na [7]: 142.2 meq/L
PL [7]: 134.2 mg/dL
RALB [7]: 2.7 g/dL
TBIL [7]: 0.026 mg/dL
TC [7]: 54 mg/dL
TG [7]: 178.6 mg/dL
TP [7]: 5.9 g/dL
gamma-GTP [7]: 1.2 IU/L
A/G [8]: 0.8
ALP [8]: 1236.2 IU/L
ALT [8]: 43.6 IU/L
AST [8]: 66.8 IU/L
BUN [8]: 16.6 mg/dL
CRE [8]: 0.2 mg/dL
Ca [8]: 11.1 mg/dL
Cl [8]: 105.2 meq/L
DBIL [8]: 0.022 mg/dL
GLC [8]: 192 mg/dL
IP [8]: 6.7 mg/dL
K [8]: 3.9 meq/L
LDH [8]: 76.6 IU/L
Na [8]: 143.6 meq/L
PL [8]: 141.4 mg/dL
RALB [8]: 2.9 g/dL
TBIL [8]: 0.034 mg/dL
TC [8]: 56.2 mg/dL
TG [8]: 214 mg/dL
TP [8]: 6.3 g/dL
gamma-GTP [8]: 1 IU/L
